The target in series [1] is T1, XIAP-Caspase-9 in HEK293-XIAP-Caspase-9 cells (Homo sapiens, UniProt P98170).
T1 construct: FLAG; expressed in transfected cells
The experiment in a line: HEK293-XIAP-Caspase-9 immunoprecipitation (IP) MSD assay. The class given is cell-based. Particulars: compound 2 h at 37° C.; read-out: HEK293-X-C9 IP. On the procedure: Stable HEK293-XIAP-Caspase-9 cells were plated out into 96-well plates [200 μl/well at 1×10^6 cells/mL in cultured complete medium (DMEM+10% FBS+0.5 mg/mL Geneticin (Invitrogen)] and left overnight at 37° C. to recover. Compounds were added to duplicate wells in 0.1% DMSO for 2 h at 37° C. Cells were lysed in 50 μl 1×MSD lysis buffer (1% Triton X-100 in 20 mM Tris·Cl (pH 7.6), 150 mM NaCl including protease inhibitors) for 20 min rocking at room temperature. Streptavidin high bind MSD plate (L15SB-2) were coated with biotinylated anti-FLAG M2 antibody (Sigma F9291) at 25 μl/well with a 5 μg/mL dilution of antibody in PBS for 1 h, shaking; followed by blocking for 1 h with 150 μl 3% BSA/TBST. Cell lysate (25 μl) was added to the 96-well anti-FLAG coated MSD plate and placed on shaker for 4 h at room temperature. […] Plates were washed 4 times with 150 μl TBST, and 150 μl/well 1×MSD read buffer (R92TC-2) added before reading each plate.
EC50 values were determined from dose-response plots using nonlinear least-squares analysis.

Series [2] addresses T2, hERG ion channel (Homo sapiens, UniProt Q12809).
T2 construct: expressed in transfected cells; host or cells: CHO K1
Briefly: Population Patch Clamp (PPC) hERG assay in CHO K1 cells. The class given is cell-based. To be noted: for IC50: CHO K1 cells stably transfected with hERG. Here is the method: Inhibition of the hERG channel was measured by automated patch clamp assay in CHO K1 cells, stably transfected with the hERG ion channel. PPC measurements were performed using an IonWorks Quattro instrument (Molecular Devices Corporation, Union City, CA) using a 384 well PatchPlate (Molecular Devices Corporation) with 64 apertures per well. Each concentration of test compound was tested in duplicate wells. Amphotericin B was used to obtain electrical access to the cell interior at a final concentration of 200 μg/mL. Human ether-à-gogo related gene (hERG) currents were measured with a prepulse to +40 mV (2 s) from the holding potential of −80 mV, followed by a step to −50 mV (2 s) to elicit the deactivating tail currents, before returning to the holding potential for 1s. Compounds were incubated for 600s between the pre- and post-compound reads. The external recording solution used was 130 mM Na Gluconate, 20 mM NaCl, 4 mM KCl, 1 mM MgCl2, 1.8 mM CaCl2, 10 mM Hepes, 5 mM Glucose, pH to 7.3 with NaOH. All data were filtered for seal quality, seal drop, and current amplitude. The maximum current amplitude of the 3rd pulse tail current was calculated before (Pre) and after (Post) compound addition and the amount of block assessed by dividing the Post-compound current amplitude by the Pre-compound current amplitude.

Values joined by “and” are separate entries in the source; they are usually repeats but may differ in a detail not shown here. Identical values can stand only once. Counter-ions that a name gives are not always drawn.

T1 sequence (P98170 whole entry): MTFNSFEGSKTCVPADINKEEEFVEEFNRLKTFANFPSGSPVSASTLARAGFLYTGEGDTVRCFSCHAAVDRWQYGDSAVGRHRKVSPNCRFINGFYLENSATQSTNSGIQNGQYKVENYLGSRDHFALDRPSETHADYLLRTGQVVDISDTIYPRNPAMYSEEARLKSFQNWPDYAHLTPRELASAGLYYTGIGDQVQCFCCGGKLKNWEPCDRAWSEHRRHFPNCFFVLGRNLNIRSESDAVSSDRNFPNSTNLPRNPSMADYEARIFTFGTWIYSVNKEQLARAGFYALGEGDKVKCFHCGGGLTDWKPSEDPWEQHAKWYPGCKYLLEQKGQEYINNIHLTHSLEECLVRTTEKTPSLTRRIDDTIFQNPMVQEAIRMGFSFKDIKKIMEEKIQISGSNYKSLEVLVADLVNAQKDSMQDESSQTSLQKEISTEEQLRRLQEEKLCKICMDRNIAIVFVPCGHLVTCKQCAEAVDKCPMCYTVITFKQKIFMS
T2 sequence (Q12809 whole entry): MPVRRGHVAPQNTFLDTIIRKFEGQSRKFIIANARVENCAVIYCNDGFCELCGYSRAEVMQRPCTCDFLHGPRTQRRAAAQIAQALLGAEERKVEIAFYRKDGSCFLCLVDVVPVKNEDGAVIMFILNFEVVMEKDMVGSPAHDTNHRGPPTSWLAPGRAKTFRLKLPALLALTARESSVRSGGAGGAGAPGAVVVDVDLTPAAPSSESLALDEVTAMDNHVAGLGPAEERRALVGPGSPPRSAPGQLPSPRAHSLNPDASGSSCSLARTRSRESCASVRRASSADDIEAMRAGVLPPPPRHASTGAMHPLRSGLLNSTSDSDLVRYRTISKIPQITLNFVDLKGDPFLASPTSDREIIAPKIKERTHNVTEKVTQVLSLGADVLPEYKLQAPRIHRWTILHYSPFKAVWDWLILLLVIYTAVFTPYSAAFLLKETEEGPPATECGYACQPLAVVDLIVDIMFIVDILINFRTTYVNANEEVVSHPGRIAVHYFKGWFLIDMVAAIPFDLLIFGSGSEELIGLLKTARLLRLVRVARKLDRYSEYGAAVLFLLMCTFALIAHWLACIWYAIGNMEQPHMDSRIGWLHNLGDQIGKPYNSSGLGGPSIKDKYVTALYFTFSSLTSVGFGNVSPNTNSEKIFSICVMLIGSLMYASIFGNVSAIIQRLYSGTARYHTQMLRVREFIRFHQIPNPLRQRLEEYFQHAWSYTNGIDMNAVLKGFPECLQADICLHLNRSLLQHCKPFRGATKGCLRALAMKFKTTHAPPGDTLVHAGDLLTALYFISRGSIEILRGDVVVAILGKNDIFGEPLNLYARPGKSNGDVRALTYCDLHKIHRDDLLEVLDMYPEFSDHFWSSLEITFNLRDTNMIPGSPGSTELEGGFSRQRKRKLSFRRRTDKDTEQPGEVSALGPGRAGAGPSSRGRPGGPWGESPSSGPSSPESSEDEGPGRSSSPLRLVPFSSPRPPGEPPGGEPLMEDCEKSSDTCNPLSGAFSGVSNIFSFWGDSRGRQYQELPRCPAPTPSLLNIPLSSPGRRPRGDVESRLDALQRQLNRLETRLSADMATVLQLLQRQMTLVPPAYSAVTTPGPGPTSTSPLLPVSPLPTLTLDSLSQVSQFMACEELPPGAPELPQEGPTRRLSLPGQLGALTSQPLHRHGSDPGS

Consider `C[C@@H]1CN(CC(=O)N2CC(C)(C)c3nc(CO)c(Cc4ccc(F)cc4F)cc32)[C@@H](CN2CCOC[C@H]2C)CN1` [Example 11, 1-{6-[(2,4-Difluorophenyl)methyl]-5-(hydroxymethyl)-3,3-dimethyl-1H,2H,3H-pyrrolo[3,2-b]pyridin-1-yl}-2-[(2R,5R)-5-methyl-2-{[(3R)-3-methylmorpholin-4-yl]methyl}piperazin-1-yl] ethan-1-one dihydrochloride], for which the EC50 in series [1] amounted to 1.1 nM. Besides, the IC50 in series [2] worked out at 51 µM.
Regarding `C[C@@H]1CN(CC(=O)N2CC(C)(C)c3c2cc(Cc2ccc(F)cc2F)c(=O)n3C)[C@@H](CN2[C@H](C)COC[C@H]2C)CN1` [Example 12, 6-[(2,4-Difluorophenyl)methyl]-1-{2-[(2R,5R)-2-{[(3R,5R)-3,5-dimethylmorpholin-4-yl]methyl}-5-methylpiperazin-1-yl]acetyl}-3,3,4-trimethyl-1H,2H,3H,4H,5H-pyrrolo [3,2-b]pyridin-5-one dihydrochloride], the EC50 in series [1] came to 0.69 nM. The “hERG PPC (PI)” value in series [2] (@ 100 μM) is listed as 41% @ 100.
Regarding `Cc1c2c(cn(Cc3ccc(F)cc3F)c1=O)N(C(=O)CN1C[C@@H](C)NC[C@@H]1CN1CCOC[C@H]1C)CC2(C)C` [Example 31, 6-[(2,4-Difluorophenyl)methyl]-3,3,4-trimethyl-1-{2-[(2R,5R)-5-methyl-2-{[(3R)-3-methylmorpholin-4-yl]methyl}piperazin-1-yl]acetyl}-1H,2H,3H,5H,6H-pyrrolo[2,3-c]pyridin-5-one dihydrochloride], in series [1], the EC50 was 0.94 nM and 2.2 nM. Further, in series [2], it took 140 µM to reach half-maximal inhibition (IC50).
As for `CCCCc1cc2c(n(N)c1=O)C(C)(C)CN2C(=O)CN1C[C@@H](C)NC[C@@H]1CN1[C@H](C)COC[C@H]1C` [Example 30, 4-Amino-6-butyl-1-{2-[(2R,5R)-2-{[(3R,5R)-3,5-dimethylmorpholin-4-yl]methyl}-5-methylpiperazin-1-yl]acetyl}-3,3-dimethyl-1H,2H,3H,4H,5H-pyrrolo[3,2-b]pyridin-5-one dihydrochloride], the EC50 in series [1] was 1.2 nM and 1.4 nM. In addition, in series [2], half-maximal inhibition (IC50) required 230 µM.
In the case of `C[C@@H]1CN(CC(=O)N2CC(C)(C)c3nc(C(O)CO)c(Cc4ccc(F)cc4)cc32)[C@@H](CN2CCOC[C@H]2C)CN1` (single isomer, unassigned) [Example 13, 1-[5-((R or S)-1,2-Dihydroxyethyl)-6-[(4-fluorophenyl)methyl]-3,3-dimethyl-1H,2H,3H-pyrrolo [3,2-b]pyridin-1-yl]-2-[(2R,5R)-5-methyl-2-{[(3R)-3-methylmorpholin-4-yl]methyl}piperazin-1-yl] ethan-1-one dihydrochloride], in series [1], the EC50 was 4.4 nM. Also, in series [2] (@ 300 μM, dihydrochloride), the “hERG PPC (PI)” value amounted to 46% @ 300.
Take `C[C@@H]1CN(CC(=O)N2CC(C)(C)c3c2cc(Cc2ccc(F)cc2F)c(=O)n3N)[C@@H](CN2CCOC[C@H]2C)CN1.Cl.Cl` [Example 23, 4-Amino-6-[(2,4-difluorophenyl)methyl]-3,3-dimethyl-1-{2-[(2R,5R)-5-methyl-2-{[(3R)-3-methylmorpholin-4-yl]methyl}piperazin-1-yl]acetyl}-1H,2H,3H,4H,5H-pyrrolo[3,2-b] pyridin-5-one dihydrochloride]: the EC50 in series [1] was 0.77 nM. The “hERG PPC (PI)” value in series [2] (@ 100 μM) is reported as 63% @ 100.
Turning to `C[C@@H]1CN(CC(=O)N2CC(C)(C)c3c2cc(Cc2ccc(F)cc2F)c(=O)n3C)[C@@H](CN2C[C@H](C)OC[C@H]2C)CN1` [Example 25, 6-[(2,4-Difluorophenyl)methyl]-1-{2-[(2R,5R)-2-{[(2S,5R)-2,5-dimethylmorpholin-4-yl]methyl}-5-methylpiperazin-1-yl]acetyl}-3,3,4-trimethyl-1H,2H,3H,4H,5H-pyrrolo[3,2-b]pyridin-5-one dihydrochloride], the EC50 in series [1] was 2.7 nM.
As for `C[C@@H]1CN(CC(=O)N2CC(C)(C)c3cc(=O)n(Cc4ccc(F)cc4F)cc32)[C@@H](CN2[C@H](C)COC[C@H]2C)CN1` [Example 20, 6-[(2,4-Difluorophenyl)methyl]-1-{2-[(2R,5R)-2-{[(3R,5R)-3,5-dimethylmorpholin-4-yl]methyl}-5-methylpiperazin-1-yl]acetyl}-3,3-dimethyl-1H,2H,3H,5H,6H-pyrrolo[2,3-c]pyridin-5-one dihydrochloride], in series [1], the EC50 was 6.3 nM. For the same molecule, the “hERG PPC (PI)” value in series [2] (@ 100 μM) worked out at 44% @ 100.
As for `COCC(O)c1nc2c(cc1Cc1ccc(F)cc1)N(C(=O)CN1C[C@@H](C)NC[C@@H]1CN1CCOC[C@H]1C)CC2(C)C` (single isomer, unassigned) [Example 28, 1-{6-[(4-Fluorophenyl)methyl]-5-((R or S)-1-hydroxy-2-methoxyethyl)-3,3-dimethyl-1H,2H,3H-pyrrolo[3,2-b]pyridin-1-yl}-2-[(2R,5R)-5-methyl-2-{[(3R)-3-methylmorpholin-4-yl]methyl}piperazin-1-yl] ethan-1-one trihydrochloride], the EC50 in series [1] came out at 4.4 nM. Besides, the “hERG PPC (PI)” value in series [2] (@ 125 μM) is on record as 45% @ 125.
Consider `C[C@@H]1CN(CC(=O)N2CC(C)(C)c3nc(C(O)CO)c(Cc4ccc(F)cc4)cc32)[C@@H](CN2[C@H](C)COC[C@H]2C)CN1` (single isomer, unassigned) [Example 21, 1-[5-((R or S)-1,2-Dihydroxyethyl)-6-[(4-fluorophenyl)methyl]-3,3-dimethyl-1H,2H,3H-pyrrolo[3,2-b]pyridin-1-yl]-2-[(2R,5R)-2-{[(3R,5R)-3,5-dimethylmorpholin-4-yl]methyl}-5-methylpiperazin-1-yl] ethan-1-one dihydrochloride], for which, in series [1], the EC50 turned out to be 2.1 nM. In addition, the “hERG PPC (PI)” value in series [2] (@ 100 μM) is listed as 35% @ 100.
Consider `C[C@@H]1CN(CC(=O)N2CC(C)(C)c3[nH]c(=O)c(Cc4ccc(F)cc4F)cc32)[C@@H](CN2CCOC[C@H]2C)CN1` [Example 8, 6-[(2,4-Difluorophenyl)methyl]-3,3-dimethyl-1-{2-[(2R,5R)-5-methyl-2-{[(3R)-3-methylmorpholin-4-yl]methyl}piperazin-1-yl]acetyl}-1H,2H,3H,4H,5H-pyrrolo[3,2-b]pyridin-5-one dihydrochloride], for which the EC50 in series [1] came to 5.4 nM. The “hERG PPC (PI)” value in series [2] (@ 300 μM) is recorded as 39% @ 300.
For `C[C@@H]1CN(CC(=O)N2CC(C)(C)c3c2cc(Cc2ccccc2F)c(=O)n3C)[C@@H](CN2CCOC[C@H]2C)CN1` [Example 9, 6-[(2-Fluorophenyl)methyl]-3,3,4-trimethyl-1-{2-[(2R,5R)-5-methyl-2-{[(3R)-3-methylmorpholin-4-yl]methyl}piperazin-1-yl]acetyl}-1H,2H,3H,4H,5H-pyrrolo[3,2-b]pyridin-5-one dihydrochloride] the same measures were 3 nM and 50% @ 300.
For the molecule `CCCCc1cc2c(n(C)c1=O)C(C)(C)CN2C(=O)CN1C[C@@H](C)NC[C@@H]1CN1[C@H](C)COC[C@H]1C` [Example 33, 6-Butyl-1-{2-[(2R,5R)-2-{[(3R,5R)-3,5-dimethylmorpholin-4-yl]methyl}-5-methylpiperazin-1-yl]acetyl}-3,3,4-trimethyl-1H,2H,3H,4H,5H-pyrrolo[3,2-b]pyridin-5-one dihydrochloride], the EC50 in series [1] is 2.4 nM. For the same molecule, in series [2] (@ 31.3 μM), the “hERG PPC (PI)” value is 33% @ 31.3.
With `C[C@@H]1CN(CC(=O)N2CC(C)(C)c3nc(CO)c(Cc4ccccc4F)cc32)[C@@H](CN2CCOC[C@H]2C)CN1` [Example 4, 1-{6-[(2-Fluorophenyl)methyl]-5-(hydroxymethyl)-3,3-dimethyl-1H,2H,3H-pyrrolo[3,2-b]pyridin-1-yl}-2-[(2R,5R)-5-methyl-2-{[(3R)-3-methylmorpholin-4-yl]methyl}piperazin-1-yl] ethan-1-one dihydrochloride], the EC50 in series [1] turned out to be 2.6 nM. Also, the “hERG PPC (PI)” value in series [2] (@ 30 μM) is recorded as 47% @ 30.
With `C[C@@H]1CN(CC(=O)N2CC(C)(C)c3nc(C(O)CO)c(Cc4ccc(F)cc4)cc32)[C@@H](CN2CCOC[C@H]2C)CN1` (single isomer, unassigned) [Example 14, 1-[5-((R or S)-1,2-Dihydroxyethyl)-6-[(4-fluorophenyl)methyl]-3,3-dimethyl-1H,2H,3H-pyrrolo [3,2-b]pyridin-1-yl]-2-[(2R,5R)-5-methyl-2-{[(3R)-3-methylmorpholin-4-yl]methyl}piperazin-1-yl] ethan-1-one dihydrochloride], in series [1], the EC50 amounted to 13 nM. The “hERG PPC (PI)” value in series [2] (@ 300 μM, dihydrochloride) is recorded as 58% @ 300.

Usually IC50 stands for the concentration needed to halve the response being measured.
